According to article PMC11111408, “Concurrent inhibition of oncogenic and wild-type RAS-GTP for cancer therapy” (Nature, 2024):
“And” between values parts separate entries of the source, which are not always exact repeats. Identical values can stand only once. Like-named read-outs stand apart in the source and are kept apart here. Each block holds one compound with its values, some of them ahead of it.

Key:
[1] = test system: Capan-1 cells; assay: Cellular ERK phosphorylation (pERK); format: cell-based; conditions: Homo sapiens; Capan-1 (KRAS^G12V PDAC); (95% CI)
[2] = test system: A375 cells; assay: Cell proliferation (CTG); format: cell-based, human; conditions: Homo sapiens, A-375; A375, CTG; (95% CI)
Description: (§1) Alternatively, cells were seeded in round-bottom ultra-low attachment 96-well plates, centrifuged at 1,000 rpm for 10 min to pellet the cells, and incubated overnight or up to 72 h to allow for 3D spheroid formation. […] Cell viability was determined by CellTiter-Glo 2.0 reagent (2D CTG) (Promega, G9243) or 3D CellTiter-Glo reagent (3D CTG) (Promega, G9683) according to the manufacturer’s protocols. Luminescence was detected using a SpectraMax M5 Plate Reader (Molecular Devices) of Perkin Elmer Enspire. Luminescence signal was normalized to vehicle-treated wells (normalized signal (%) = (luminescence (treated)/mean luminescence (vehicle)) × 100%). […] Data were plotted as log [inhibitor (M)], and a four-parameter sigmoidal concentration response model was fitted to the data to calculate EC50. […] Pa16C MEK1 mutant cells were evaluated by live-cell counting using Calcein AM and a SpectraMax i3X multi-mode detection platform (Molecular Devices). Growth percentages were calculated by normalizing the treated cell counts to their respective untreated cell counts.

[3] = test system: Capan-1 cells; assay: Cell proliferation (CTG); format: cell-based; conditions: Homo sapiens; Capan-1, CTG; (95% CI)
Description: as §1

[4] = test system: A375 cells; assay: Cellular ERK phosphorylation (pERK); format: cell-based, human; conditions: Homo sapiens, A-375; A375 (BRAF^V600E)
[5] = Oral bioavailability in mice (LC-MS/MS of blood); format: in vivo; conditions: mouse, whole blood, read-out: Oral Bioavailability m%F
[6] = target: T1, CYPA (Homo sapiens, UniProt P62937); assay: CYPA binding affinity (Kd1), SPR; conditions: steady state, (95% CI)
T1 construct: His6-TEV-AviTag-CYPA (full-length); His6-TEV (N); made in house; host or cells: BL21(DE3) Escherichia coli
Description: The binding affinity of compounds for CYPA (Kd1) was assessed by SPR on a Biacore 8K instrument as previously described.

[7] = target: KRAS^G12V (Homo sapiens, UniProt P01116+P62937, G12V); assay: RAS binding affinity of compound-bound CYPA (Kd2), SPR; parameters: His6-TEV (N); made in house; host or cells: BL21(DE3) Escherichia coli; conditions: steady state, (95% CI)
[8] = test system: NCI-H441, HPAC and SW620 CDX models; assay: CDX models, RMC-7977 versus SHP2 and MEK inhibitors; conditions: three KRAS^G12X models; RMC-7977 10 mg kg^−1 once daily, RMC-4550 20 mg kg^−1 every 2 days, cobimetinib 2.5 mg kg^−1 once daily, alone or in combination
[9] = test system: Pa16C cells expressing MEK1 mutants; assay: Proliferation (Calcein AM) of Pa16C cells expressing MEK1 mutants; format: cell-based, human
[10] = test system: RAS-less MEFs; assay: Western blots of isogenic RAS-less MEF cells expressing KRAS variants or BRAF(V600E); format: cell-based, mouse; conditions: 24 h, western blot
[11] = test system: AsPC-1 and NCI-H441 cells; assay: pERK (MSD) and proliferation (CTG) in AsPC-1 and NCI-H441 cells, CYPA inhibitor co-treatment or PPIA KO; format: cell-based, human; conditions: for activity at 0.00046 µM: 0.46 nM

EC50 [1]: 31.6 nM
EC50 [2]: > 10000 nM
EC50 [4]: > 10000 nM
bioavailability [5]: 0.4%
Kd [6]: 330 nM
Structure (SMILES): CCn1c(-c2cccnc2[C@H](C)OC)c2c3cc(ccc31)-c1csc(n1)C[C@H](NC(=O)[C@H](C(C)C)N(C)C(C)=O)C(=O)N1CCC[C@H](N1)C(=O)OCC(C)(C)C2 [Compound 2]
EC50 [3]: 149 nM

Kd [7]: 818 nM
EC50 [1]: 124 nM
EC50 [2]: > 10000 nM
EC50 [4]: > 10000 nM
bioavailability [5]: 44%
Kd [6]: 6270 nM
Structure (SMILES): CCn1c(-c2cccnc2[C@H](C)OC)c2c3cc(ccc31)-c1csc(n1)C[C@H](NC(=O)[C@H]1CCO1)C(=O)N1CCC[C@H](N1)C(=O)OCC(C)(C)C2 [Compound 3]
EC50 [3]: 615 nM

Kd [7]: 292 nM
EC50 [1]: 1.94 nM
EC50 [2]: 6950 nM
EC50 [4]: > 10000 nM
Kd [6]: 605 nM
Structure (SMILES): CCn1c(-c2cc(N3CCN(C)CC3)cnc2[C@H](C)OC)c2c3cc(ccc31)-c1csc(n1)C[C@H](NC(=O)[C@H]1CCO1)C(=O)N1CCC[C@H](N1)C(=O)OCC(C)(C)C2 [Compound 4]
EC50 [3]: 14.2 nM

Structure (SMILES): Cc1nc(N2CCC3(CC2)CO[C@@H](C)[C@H]3N)c(CO)nc1-c1cccc(Cl)c1Cl [RMC-4550]
anti-tumour activity [8]: only modest tumour growth inhibition

Structure (SMILES): O=C(Nc1ccc2[nH]nc(-c3ccncc3)c2c1)[C@@H]1CCN(CC(=O)N2CCN(c3ccc(-c4ncccn4)cc3)CC2)C1 [SCH772984]
Proliferation of Pa16C cells expressing MEK1 mutant constructs ([9]; MEK1E102-I103del, inhibitor 0.046 nM): 102.4 and 93.7 and 111.1 and 109.2
Proliferation of Pa16C cells expressing MEK1 mutant constructs ([9]; MEK1E102-I103del, inhibitor 0.412 nM): 88.7 and 97.2 and 116.5 and 112.2
Proliferation of Pa16C cells expressing MEK1 mutant constructs ([9]; MEK1E102-I103del, inhibitor 1.235 nM): 62.5 and 77.2 and 97.3 and 86.7
Proliferation of Pa16C cells expressing MEK1 mutant constructs ([9]; MEK1K57N, inhibitor 0.046 nM): 116 and 117.1 and 131.7 and 130.6
Proliferation of Pa16C cells expressing MEK1 mutant constructs ([9]; MEK1K57N, inhibitor 0.412 nM): 139 and 146.7 and 118.9 and 144.8
Proliferation of Pa16C cells expressing MEK1 mutant constructs ([9]; MEK1K57N, inhibitor 1.235 nM): 153.6 and 157.6 and 123.4 and 129.5
Proliferation of Pa16C cells expressing MEK1 mutant constructs ([9]; MEK1K57N, inhibitor 3.704 nM): 116.2 and 140.9 and 100.4 and 107.4
Proliferation of Pa16C cells expressing MEK1 mutant constructs ([9]; MEK1K57N, inhibitor 11.111 nM): 83.1 and 119.2 and 75.2 and 67
Proliferation of Pa16C cells expressing MEK1 mutant constructs ([9]; MEK1Q56P, inhibitor 0.046 nM): 136.2 and 107 and 127.7 and 113.2
Proliferation of Pa16C cells expressing MEK1 mutant constructs ([9]; MEK1Q56P, inhibitor 0.412 nM): 178.1 and 122.6 and 149.9 and 115.3
Proliferation of Pa16C cells expressing MEK1 mutant constructs ([9]; MEK1Q56P, inhibitor 1.235 nM): 166.6 and 134 and 125.8 and 104.6
Proliferation of Pa16C cells expressing MEK1 mutant constructs ([9]; MEK1Q56P, inhibitor 3.704 nM): 131.2 and 128.6 and 108.4 and 83.5
Proliferation of Pa16C cells expressing MEK1 mutant constructs ([9]; MEK1S218D/S222D, inhibitor 0.046 nM): 105.3 and 97.5 and 108.4 and 102.6
Proliferation of Pa16C cells expressing MEK1 mutant constructs ([9]; MEK1S218D/S222D, inhibitor 0.412 nM): 90.3 and 97.7 and 107.5 and 108.3
Proliferation of Pa16C cells expressing MEK1 mutant constructs ([9]; MEK1S218D/S222D, inhibitor 1.235 nM): 59.2 and 93.4 and 100.5 and 90.2
Proliferation of Pa16C cells expressing MEK1 mutant constructs ([9]; MEK1WT, inhibitor 0.046 nM): 113.6 and 107.4 and 114.6 and 111.6
Proliferation of Pa16C cells expressing MEK1 mutant constructs ([9]; MEK1WT, inhibitor 0.412 nM): 127.4 and 95.8 and 106.8 and 108.8
Proliferation of Pa16C cells expressing MEK1 mutant constructs ([9]; MEK1WT, inhibitor 1.235 nM): 95.9 and 89.3 and 90.3 and 82.4
Proliferation of Pa16C cells expressing MEK1 mutant constructs ([9]; MEK1WT, inhibitor 3.704 nM): 49.4 and 66.6 and 61 and 49.7
Proliferation of Pa16C cells expressing MEK1 mutant constructs ([9]; MEK1WT, inhibitor 11.111 nM): 29.9 and 38 and 33.3 and 24.2

Structure (SMILES): O=C(c1ccc(F)c(F)c1Nc1ccc(I)cc1F)N1CC(O)([C@@H]2CCCCN2)C1 [cobimetinib]
anti-tumour activity [8]: only modest tumour growth inhibition

Structure (SMILES): CC(=O)Nc1cccc(-n2c(=O)n(C3CC3)c(=O)c3c(Nc4ccc(I)cc4F)n(C)c(=O)c(C)c32)c1 [trametinib, reference compound]
pERK suppression in RAS-less MEFs [10]: reduced pERK similarly in all cells
effect of disruption of the PPIA locus on sensitivity ([11]; AsPC-1 and NCI-H441, pERK and proliferation): did not affect sensitivity
activity at 16.9 pM ([11]; Homo sapiens, ASPC1, AsPC-1, […], read-out: pERK inhibition in PPIA KO cells treated with trametinib): 106%
activity at 0.00046 µM ([11]; Homo sapiens, ASPC1, AsPC-1 PPIA KO, read-out: pERK inhibition in PPIA KO cells treated with trametinib): 47%
activity at 0.00412 µM ([11]; Homo sapiens, ASPC1, AsPC-1 PPIA KO, 4.12 nM, read-out: Proliferation inhibition in PPIA KO cells treated with trametinib): 25.5%
activity at 0.037 µM ([11]; Homo sapiens, ASPC1, AsPC-1 PPIA KO, 37.00 nM, read-out: Proliferation inhibition in PPIA KO cells treated with trametinib): 9.16%
activity at 0.333 µM ([11]; Homo sapiens, ASPC1, AsPC-1 PPIA KO, 333.00 nM, read-out: Proliferation inhibition in PPIA KO cells treated with trametinib): 4.83%
activity at 50 pM ([11]; Homo sapiens, NCI-H441, NCI-H441, 0.05 nM, read-out: Proliferation inhibition in PPIA KO cells treated with trametinib): 120%
activity at 0.00412 µM ([11]; Homo sapiens, NCI-H441, NCI-H441, 4.12 nM, read-out: Proliferation inhibition in PPIA KO cells treated with trametinib): 49.5%
activity at 0.037 µM ([11]; Homo sapiens, NCI-H441, NCI-H441, 37.00 nM, read-out: Proliferation inhibition in PPIA KO cells treated with trametinib): 44.6%
activity at 0.333 µM ([11]; Homo sapiens, NCI-H441, NCI-H441, 333.00 nM, read-out: Proliferation inhibition in PPIA KO cells treated with trametinib): 42.2%
activity at 1 µM ([11]; Homo sapiens, NCI-H441, NCI-H441, 1000.00 nM, read-out: Proliferation inhibition in PPIA KO cells treated with trametinib): 35.6%
activity at 0.00046 µM ([11]; Homo sapiens, NCI-H441, NCI-H441 PPIA KO, read-out: pERK inhibition in PPIA KO cells treated with trametinib): 59%
activity at 0.00412 µM ([11]; Homo sapiens, NCI-H441, NCI-H441 PPIA KO, 4.12 nM, read-out: Proliferation inhibition in PPIA KO cells treated with trametinib): 47%
activity at 0.037 µM ([11]; Homo sapiens, NCI-H441, NCI-H441 PPIA KO, 37.00 nM, read-out: Proliferation inhibition in PPIA KO cells treated with trametinib): 40.9%
activity at 0.333 µM ([11]; Homo sapiens, NCI-H441, NCI-H441 PPIA KO, 333.00 nM, read-out: Proliferation inhibition in PPIA KO cells treated with trametinib): 37.7%
activity at 1 µM ([11]; Homo sapiens, NCI-H441, NCI-H441 PPIA KO, 1000.00 nM, read-out: Proliferation inhibition in PPIA KO cells treated with trametinib): 28.5%
